Laboratory results: US20070117157A1, “Parathyroid hormone-like polypeptides” (priority 2002, published 2007)
Entries after “also recorded” stand apart in the source; their conditions may differ.

Tests used:
UMR106.01 cells = test: cAMP production (adenylate cyclase response) in UMR106.01 cells; format: cell-based; settings: for cAMP formation by the peptide alone: FIG. 5A/5B; for maximum amplitude of cAMP response: compared with other peptides at highest concentrations
Method: The PTH-like biological activity of the peptides was assayed by measuring cyclic adenosine 3′,5′-monophosphate (cAMP) production in UMR106.01 cells (Forrest et al, Calcif Tissue Int, 37:52-56 (1985)), grown to 90% confluence. Prior to assaying, the cells were washed once with phosphate buffered saline (PBS) and equilibrated for 20 mins in medium containing 0.1% BSA and lmM-isobutylmethylxanthine (Sigma, St Louis, USA). Cells were subsequently stimulated at 37° C for 10 mins in the absence and presence of increasing hormone concentrations. The cells were then washed once with PBS and cAMP was extracted with 1.5 ml acidified ethanol. Samples were evaporated to dryness, reconstituted in assay buffer and assayed by a specific cAMP radioimmunoassay (Houssami et al, Endocrine J. 2:127-134 (1994)).

PTH-1R = PTH-1R (UniProt P25961); test: cell-based or functional assay
[1] = tested on: polyclonal antisera raised against human PTHrP(1-14), human PTHrP(1-141) and hPTH(1-34); test: Immunoblots (dot blots) with anti-human PTHrP and anti-human PTH antisera; format: binding, rabbit; settings: 10, 25, 50 μg spotted, data not shown
Text: Seven antisera (R88, R1904, R1942, R87, R1348, R196, R212) were raised against human PTHrP(1-14) and one antiserum (R190) was raised against human PTHrP(1-141). The anti-PTH polyclonal antibody was raised against hPTH(1-34)(BioGenex, San Ramon, USA). The anti-human PTHrP antisera have been used successfully in immunohistochemistry and Western blotting with tissues taken from bony and cartilaginous fishes (Danks et al, Gen Comp Endocrinol, 92:201-212 (1993); Ingleton et al, Gen Comp Endocrinol 98:211-218 (1995)). The anti-PTH antiserum has been used in immunohistochemistry of human parathyroid material and Western blotting (Danks et al, J Pathol, 161:27-33 (1993)). 10, 25, 50 μg of Fugu PTH were spotted along side a positive control, (ie human PTHrP(I-34)), on nitrocellulose membrane (Schleicher & Schuell, Dassel, Germany). After an initial incubation period with Tris buffered saline, 0.2% Tween, 5% skim milk powder to block non specific binding sites, the nitrocellulose membrane was incubated with primary polyclonal antibody, followed by secondary antibody (anti-rabbit serum conjugated to horseradish peroxidase (Dako, Carpenteria, USA)) incubation. Three washes on a shaker table were done in between incubations. A BM chemiluminescence blotting system (Roche Applied Sciences, Mannheim, Germany) was used to detect specific dot blots.

[2] = tested on: bones of male Sprague-Dawley rats; test: Anabolic effect on bones of rats (histomorphometry of proximal tibiae); format: in vivo, rat; settings: for histomorphometric markers of bone resorption: FIG. 11; for osteoblast number per unit osteoid surface: FIG. 10
Method: The anabolic effect of Fugu PTH was assessed in the bones of 50-60 g male Sprague-Dawley rats (3-4 weeks old).
Rats were subcutaneously administered a low or high dose (3 or 10 gg) of Fugu PTH(1-34) per 100 g body weight each day for 30 days. The synthetic PTH peptides were dissolved in 0.01M acetic acid and then daily injections were prepared in normal saline with 2% rat serum (from male Sprague-Dawley rats). The rats were weighed twice a week and the PTH dose adjusted for the increasing weight of each animal.
There were 12 rats in each of the following treatment groups: control, human PTH (low or high dose) and Fugu PTH (low or high dose). Rats were euthanased using asphyxiation and tibiae were removed, leaving most of the muscle on the bone. The samples were placed into freshly prepared 4% paraformaldehyde. They were fixed for 24 hours and then transferred to 70% ethanol in preparation for histomorphometry.
Fixed tibiae were X-rayed and embedded in methylmethacrylate resin as follows: Tibiae were cleaned of muscle, then bisected transversely and trimmed approximately 2 mm on each side using a water cooled slow speed bench saw to provide a flat surface for embedding, parallel to the sagittal midline. Fixed tibiae were dehydrated in acetone by hourly changes of 70% acetone, 90% acetone and 100% acetone (×2). After dehydration, samples were infiltrated with methylmethacrylate resin (85% methylmethacrylate, 15% dibutylphthalate, 0.05% benzoyl peroxide) twice for at least 3 days (minimum total of 6 days). For at least one day of the infiltration procedure, samples were infiltrated under vacuum at room temperature; all other steps were carried out at 4° C. After infiltration, tibiae were embedded in glass scintillation vials on a polymerised methylmethacrylate base in methylmethacrylate resin (85% methylmethacrylate, 15% dibuylphthalate, 3% benzoyl peroxide) in a waterbath in a 37° C. incubator over 48 hours. After polymerisation, a third layer of methacrylate was included (same components as above plus acrylic resin beads) and allowed to polymerise over another 48 hours. After samples were fully polymerised, they were cooled at −20° C. to allow polymer contraction, before the embedded tibiae were released from the glass vials by smashing them with a hammer. Polymerised tibiae were then ground on an electric grinder/ polisher to expose the bone surface, and provide a squared block to sit securely in a microtome. 5 μm sections were cut on a Leica 2165 microtome, spread with 95% ethanol and adhered to glass microscope slides by clamping overnight at 37° C. separated by pieces of bagging plastic. Fully adhered sections were deplasticised in cellosolve for 2×25 minutes, dehydrated in graded ethanols and stained with toluidine blue for standard histomorphometry. Von Kossa staining was carried out to provide composite images.
Histomorphometry was carried out according to standard procedures using the Osteomeasure Image analysis system (Osteometrics, Decatur, Ga.) in the secondary spongiosa, starting 3 mm below the growth plate in a region 3 mm wide by 1.1 mm high. Data was analysed by one-way ANOVA followed by Tukey's post-hoc test to locate significant differences.

PTH-3R = settings: zebrafish PTH-3R, Rubin et al; cited from earlier work
[3] = 10 microgram/100 gram body weight/day, 30 days, vs untreated control
[4] = high dose 10 microgram/100 gram body weight/day

Chain of UniProt P25961 (P25961 27-591 limits assumed): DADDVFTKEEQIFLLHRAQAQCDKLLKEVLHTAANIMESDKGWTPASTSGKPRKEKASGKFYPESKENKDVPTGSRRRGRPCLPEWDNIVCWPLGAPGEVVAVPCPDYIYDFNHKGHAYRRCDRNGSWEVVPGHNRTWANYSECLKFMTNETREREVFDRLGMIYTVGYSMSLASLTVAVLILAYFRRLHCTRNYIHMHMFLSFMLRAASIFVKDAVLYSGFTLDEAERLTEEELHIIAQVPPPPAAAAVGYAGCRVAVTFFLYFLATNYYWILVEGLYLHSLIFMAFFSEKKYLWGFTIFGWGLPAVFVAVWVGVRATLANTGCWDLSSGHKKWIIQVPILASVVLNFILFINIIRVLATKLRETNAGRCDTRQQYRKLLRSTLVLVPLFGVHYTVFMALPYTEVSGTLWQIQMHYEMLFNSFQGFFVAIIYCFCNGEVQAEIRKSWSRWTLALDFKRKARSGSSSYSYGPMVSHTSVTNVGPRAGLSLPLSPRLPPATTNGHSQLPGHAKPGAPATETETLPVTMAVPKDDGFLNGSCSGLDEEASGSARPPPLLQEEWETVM

Which “cAMP formation by the peptide alone” value (UMR106.01 cells) does the source give for “Fugu PTH(1-32): synthetic fragment, amino acids 1-32 of Fugu PTH (TVSEVQLMHNLGEHKQVQERREWLQRRLHGIH)” here?
Its value is “stimulated cAMP formation”.

And the “maximum amplitude of cAMP response” value (UMR106.01 cells)?
The value was “higher amplitude of maximum cAMP response than Fugu PTHrP(1-34)”.

Which results are given for Fugu PTHrP(1-34) (peptide)?
ID50 of adenylate cyclase response (FIG. 5B), UMR106.01 cells (PTH-1R): 1.5 nM; ID50 of cAMP formation in UMR106.01 cells (PTH-1R): 1.4 nM

What does the source list for “TVSEVQLMHNLGEHKQVQERREWLQRRLHGIHPIGLNNDDEPGWGRKGIASRELPNLRDLTPEEIQNALNVLEELLKSQE [Fugu PTH(1-34)]”?
potency in cAMP assay relative to other peptides (UMR106.01 cells): less potent than human PTH(1-34), human PTHrP(1-34) and Fugu PTHrP(1-34); adenylate cyclase activity on co-incubation with Fugu PTHrP(1-34) (UMR106.01 cells; 100 nM Fugu PTH(1-34) with maximal dose 10 nM Fugu PTHrP(1-34), data not shown): no further increase in adenylate cyclase activity was observed; cAMP formation by the peptide alone (UMR106.01 cells): stimulated cAMP formation; potency relative to human PTH or PTHrP (UMR106.01 cells; adenylate cyclase activation on a mammalian target cell): about one-fifth to one-tenth; maximum amplitude of cAMP response (UMR106.01 cells): higher amplitude of maximum cAMP response than Fugu PTHrP(1-34); also recorded: significantly greater than that achieved with the highest concentrations of human PTH, human PTHrP or Fugu PTHrP; cross-reactivity with antisera against human PTHrP and human PTH [1]: does not cross-react; also recorded: is not recognised by any of the human PTH or human PTHrP antisera; trabecular bone volume [2, 3]: significant increase; trabecular number [2, 3]: significant increase; trabecular separation [2, 3]: without a reduction; trabecular thickness [2, 3]: significant increase; osteoblast generation ([2]; 10 micrograms/100 grams): increased osteoblast generation; anabolic effect on bone ([2]; 10 micrograms/100 grams, young growing rats): anabolic in young growing rats; histomorphometric markers of bone resorption ([2]; dose not specified): not significantly altered; osteoclast number [2, 4]: trend for reduced osteoclast numbers but this did not reach statistical significance; also recorded: trend towards reduced osteoclast number; osteoblast number per unit osteoid surface [2, 4]: significantly increased; osteoblast proliferation ([2]; low dose 3 microgram/100 gram body weight/day, FIG. 9): trend towards increased osteoblast proliferation; osteoblast number per unit osteoid surface ([2]; low dose 3 microgram/100 gram body weight/day): significantly increased; bone mass / trabecular density in proximal tibiae ([2]; young rats, s.c. daily for 30 days, 3 or 10 microgram/100 gram body weight/day, FIG. 6): increases bone mass in young rats; also recorded: apparent elevation of trabecular density

With “human PTH: human parathyroid hormone, comparator peptide in rats (low or high dose); fragment length not stated there [reference compound]” as the substance, how does the osteoclastogenesis ([2]; 10 microgram/100 gram) read?
The osteoclastogenesis was “mild reduction in osteoclastogenesis”.

What about the “histomorphometric markers of bone formation (osteoblast number and surface)” value ([2]; dose not specified in legend, FIG. 9) of the same substance?
The value was “significantly elevated”.

And the “osteoblast number per unit osteoid surface” value [2, 4]?
Its value is “significantly increased”.

What about the “histomorphometric markers of bone resorption” value [2, 4] of the same substance?
Its value is “significantly reduced”.

What about the “fold less potent than human PTHrP or Fugu PTHrP in receptor activation” value (PTH-3R) of the same substance?
The value was 20 fold.

For “human PTHrP(7-34): human parathyroid hormone-related protein fragment 7-34, co-incubated as inhibitor of the cAMP response [reference compound]”, which “inhibition of the cAMP response to agonist peptides” value (UMR106.01 cells; increasing concentrations co-incubated with 10 nM Fugu PTH(1-34), 1 nM human PTH(1-34), 0.5 nM Fugu PTHrP(1-34) or 0.5 nM human PTHrP(1-34), data not shown) is on record?
Its value is “partial inhibition of the cAMP response”.
